Entries after “also recorded” stand apart in the source; their conditions may differ. Each block holds one compound with its values, some of them ahead of it.
How the values were obtained:
HCC-827 flank tumors = assay: HCC-827 NSCLC xenograft flank model
Method: All animal studies were conducted in accordance with the guidelines established by the internal Institutional Animal Care and Use Committees. For CD8 IGF1R flank tumors, 5.0 × 10^5 cells/mouse were mixed with an equal volume of Matrigel (BD Biosciences) and injected subcutaneously into the flank of 6- to 8-week-old female nu/nu mice (22 g; Charles River Laboratories). The tumors were allowed to grow approximately 225 mm^3, and mice were reassigned into treatment groups (N = 10) based on tumor volume. At the initiation of treatment, the mean tumor volume ± SEM of the groups was approximately 231 ± 10 mm^3. For MiaPaCa-2 flank tumors, 1.0 × 10^6 cells/mouse were mixed with an equal volume of Matrigel and injected subcutaneously into the flank of 6- to 8-week-old female SCID mice (20 g; Charles River Laboratories). The tumors were allowed to grow approximately 225 mm^3, and mice were reassigned into treatment groups (N = 10) based on tumor volume. At the initiation of treatment, the mean tumor volume ± SEM of the groups was approximately 210 ± 30 mm^3. […] The tumors were allowed to grow approximately 225 mm^3, and mice were reassigned into treatment groups (N = 10) based on tumor volume. At the initiation of treatment, the mean tumor volume ± SEM of the groups was approximately 300 ± 20 mm^3. In all flank models, tumor growth was periodically analyzed by measurement with digital calipers and tumor volume was estimated from the formula (L × W ^2)/2. For all flank models, the effect of treatment on tumor growth rate was assessed by determining %T/C [(mean tumor volume of treated group on day X ÷ mean tumor volume of control group on day X) × 100].
Erlotinib was dosed orally at 3.1 mg/kg, b.i.d. for 16 days.

[1] = target: T1, epidermal growth factor receptor (EGFR) (Homo sapiens, UniProt P00533); assay: Cellular EGFR phosphorylation in A-431 and HCC827 cells; format: cell-based; details: A-431 cells; read-out: IC50 for inhibition of cellular EGFR phosphorylation
T1 construct: endogenous in cells; host or cells: A-431 and HCC827 cells
T1 sequence (P00533 25-1210): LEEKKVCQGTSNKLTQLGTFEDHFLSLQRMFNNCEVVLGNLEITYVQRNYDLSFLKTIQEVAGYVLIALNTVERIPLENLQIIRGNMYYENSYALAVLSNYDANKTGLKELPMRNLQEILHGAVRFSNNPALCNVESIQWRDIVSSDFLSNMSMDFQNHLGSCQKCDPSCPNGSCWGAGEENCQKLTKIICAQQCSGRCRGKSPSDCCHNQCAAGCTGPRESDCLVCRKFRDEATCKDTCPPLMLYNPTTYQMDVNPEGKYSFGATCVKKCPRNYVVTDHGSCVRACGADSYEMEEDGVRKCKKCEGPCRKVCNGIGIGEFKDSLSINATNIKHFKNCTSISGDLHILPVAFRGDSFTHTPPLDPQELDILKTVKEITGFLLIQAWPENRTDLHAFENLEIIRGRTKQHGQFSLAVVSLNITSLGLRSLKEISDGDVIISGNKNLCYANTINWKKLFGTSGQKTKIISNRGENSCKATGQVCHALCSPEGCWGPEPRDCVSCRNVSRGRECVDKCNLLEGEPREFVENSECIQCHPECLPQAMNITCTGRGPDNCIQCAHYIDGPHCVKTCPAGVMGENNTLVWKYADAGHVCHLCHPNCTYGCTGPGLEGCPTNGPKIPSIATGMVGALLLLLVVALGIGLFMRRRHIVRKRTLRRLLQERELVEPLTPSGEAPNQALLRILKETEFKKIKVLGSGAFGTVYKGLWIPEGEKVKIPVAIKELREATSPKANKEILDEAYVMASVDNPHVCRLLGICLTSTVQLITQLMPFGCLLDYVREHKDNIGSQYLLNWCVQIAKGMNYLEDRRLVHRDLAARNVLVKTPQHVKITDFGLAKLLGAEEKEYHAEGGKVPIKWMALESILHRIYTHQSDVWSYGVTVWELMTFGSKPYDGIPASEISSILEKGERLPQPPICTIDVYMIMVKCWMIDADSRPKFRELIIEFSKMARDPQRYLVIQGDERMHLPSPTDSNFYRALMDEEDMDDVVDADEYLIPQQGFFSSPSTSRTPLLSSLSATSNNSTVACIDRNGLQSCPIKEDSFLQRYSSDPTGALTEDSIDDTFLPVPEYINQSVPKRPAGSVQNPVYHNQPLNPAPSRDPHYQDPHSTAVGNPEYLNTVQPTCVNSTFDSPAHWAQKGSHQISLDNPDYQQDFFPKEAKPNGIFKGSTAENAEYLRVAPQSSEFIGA

[2] = target: T2, epidermal growth factor receptor (EGFR) (Homo sapiens, UniProt P00533, DEL746-750); assay: as above; format: cell-based; details: HCC827 cells; read-out: IC50 for inhibition of cellular EGFR phosphorylation
T2 construct: endogenous in cells; host or cells: A-431 and HCC827 cells
T2 sequence (P00533 with tags, fused parts or gaps DEL746-750): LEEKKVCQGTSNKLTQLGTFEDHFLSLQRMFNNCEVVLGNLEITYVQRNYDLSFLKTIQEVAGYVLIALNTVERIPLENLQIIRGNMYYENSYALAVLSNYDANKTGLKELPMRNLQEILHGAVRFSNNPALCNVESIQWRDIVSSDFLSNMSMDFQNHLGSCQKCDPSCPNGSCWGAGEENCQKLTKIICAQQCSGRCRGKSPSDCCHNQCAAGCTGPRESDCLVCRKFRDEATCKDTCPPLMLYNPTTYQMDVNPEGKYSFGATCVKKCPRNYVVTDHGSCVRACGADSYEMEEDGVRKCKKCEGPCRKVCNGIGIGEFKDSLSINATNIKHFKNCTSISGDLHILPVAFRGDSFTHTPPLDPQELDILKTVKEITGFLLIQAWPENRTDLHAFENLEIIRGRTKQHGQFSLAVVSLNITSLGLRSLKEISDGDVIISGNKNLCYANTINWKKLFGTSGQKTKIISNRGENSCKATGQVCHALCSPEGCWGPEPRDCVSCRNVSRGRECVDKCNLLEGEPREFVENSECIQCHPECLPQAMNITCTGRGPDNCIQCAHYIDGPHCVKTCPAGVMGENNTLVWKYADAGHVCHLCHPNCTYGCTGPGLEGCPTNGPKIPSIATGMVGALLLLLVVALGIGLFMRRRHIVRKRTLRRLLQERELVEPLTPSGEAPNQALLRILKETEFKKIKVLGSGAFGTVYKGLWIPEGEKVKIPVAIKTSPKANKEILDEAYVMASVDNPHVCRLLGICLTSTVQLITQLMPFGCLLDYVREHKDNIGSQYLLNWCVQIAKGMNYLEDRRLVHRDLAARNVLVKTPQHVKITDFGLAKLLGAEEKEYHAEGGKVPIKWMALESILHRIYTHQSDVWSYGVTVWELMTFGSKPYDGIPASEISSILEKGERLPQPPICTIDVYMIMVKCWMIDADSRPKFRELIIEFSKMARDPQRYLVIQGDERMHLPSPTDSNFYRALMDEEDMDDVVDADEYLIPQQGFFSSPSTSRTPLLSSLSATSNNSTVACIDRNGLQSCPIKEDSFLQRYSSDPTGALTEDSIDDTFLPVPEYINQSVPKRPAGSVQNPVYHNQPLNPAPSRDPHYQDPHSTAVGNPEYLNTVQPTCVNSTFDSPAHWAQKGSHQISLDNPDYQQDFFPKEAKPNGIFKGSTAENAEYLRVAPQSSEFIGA

IGF1R = IGF1R (Homo sapiens, UniProt P08069); assay: In vitro kinase panel (kinome profile), IGF1R; format: biochemical
Method: (§1) Figure 1 Chemical structure and activity of A-928605. A, The chemical name of A-928605 is 3-(2-(2-chlorobenzyl)-1 H-benzo [d]imidazol-5-yl)-1-((1 r, 4 r)-4-morpholinocyclohexyl)-1 H-pyrazolo [3,4-d]pyrimidin-4-amine. B, Kinome profile analysis of A-928605 on 156 unique kinases. Heat map colors correspond to the relative Ki against each kinase, where Ki greater than 1,000 nM are colored green, near 100 nM are yellow and Ki of roughly 10 nM are shaded red.

IR = IR (Homo sapiens, UniProt P06213); assay: In vitro kinase panel (kinome profile), IR; format: biochemical
Chain of IR (P06213 28-1382): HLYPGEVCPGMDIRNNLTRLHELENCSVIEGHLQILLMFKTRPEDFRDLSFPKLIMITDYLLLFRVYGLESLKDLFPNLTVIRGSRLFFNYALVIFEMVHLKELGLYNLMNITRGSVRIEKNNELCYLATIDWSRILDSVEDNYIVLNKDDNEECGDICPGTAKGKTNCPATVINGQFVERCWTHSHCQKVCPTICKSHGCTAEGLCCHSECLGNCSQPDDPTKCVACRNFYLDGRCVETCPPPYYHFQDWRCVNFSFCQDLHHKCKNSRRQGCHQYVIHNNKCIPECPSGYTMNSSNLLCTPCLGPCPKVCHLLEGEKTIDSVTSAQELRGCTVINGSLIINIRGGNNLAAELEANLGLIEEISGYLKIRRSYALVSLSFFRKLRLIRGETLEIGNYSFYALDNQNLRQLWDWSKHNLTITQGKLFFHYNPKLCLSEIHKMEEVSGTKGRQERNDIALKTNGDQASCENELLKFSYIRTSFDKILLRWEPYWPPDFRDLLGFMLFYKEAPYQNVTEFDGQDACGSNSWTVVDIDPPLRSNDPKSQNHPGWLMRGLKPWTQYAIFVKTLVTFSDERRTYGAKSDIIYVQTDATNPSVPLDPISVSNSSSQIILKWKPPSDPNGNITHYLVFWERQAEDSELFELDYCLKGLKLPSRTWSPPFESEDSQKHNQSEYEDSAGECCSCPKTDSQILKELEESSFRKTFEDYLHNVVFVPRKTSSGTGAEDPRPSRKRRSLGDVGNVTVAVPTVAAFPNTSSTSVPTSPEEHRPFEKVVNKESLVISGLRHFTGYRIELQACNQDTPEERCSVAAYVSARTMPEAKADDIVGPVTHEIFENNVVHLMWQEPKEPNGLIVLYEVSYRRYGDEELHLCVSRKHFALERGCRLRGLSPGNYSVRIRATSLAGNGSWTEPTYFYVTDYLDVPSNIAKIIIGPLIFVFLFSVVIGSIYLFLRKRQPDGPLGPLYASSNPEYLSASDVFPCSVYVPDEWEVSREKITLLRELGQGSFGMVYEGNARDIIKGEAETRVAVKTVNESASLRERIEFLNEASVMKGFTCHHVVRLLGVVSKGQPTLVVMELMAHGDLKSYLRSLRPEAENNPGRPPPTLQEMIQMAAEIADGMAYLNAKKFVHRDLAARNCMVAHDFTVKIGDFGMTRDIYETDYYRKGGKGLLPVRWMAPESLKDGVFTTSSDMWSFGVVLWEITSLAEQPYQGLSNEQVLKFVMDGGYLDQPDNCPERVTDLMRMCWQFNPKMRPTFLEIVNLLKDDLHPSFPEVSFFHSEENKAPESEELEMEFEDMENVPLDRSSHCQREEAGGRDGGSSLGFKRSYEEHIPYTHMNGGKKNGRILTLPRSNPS
Method: as §1

NIH-3T3 CD8-IGF1R cells [3] = assay: DNA microarray analysis, CD8-IGF1R cells; format: cell-based; details: 1 μM, 24 hours
Method: Cells were treated with 1 μM of compound or DMSO control ([…] final concentration) and grown under normal conditions for 24 hours. Cells were then directly lysed in QIAzol RNA lysis reagent (Qiagen, Valencia, CA). Samples were homogenized using an Ultra Turrax T 25 homogenizer (IKA, Wilmington, SC) and then processed with the RNeasy 96 Universal Tissue 8000 kit (Qiagen, Valencia, CA) using a BioRobot 3000 liquid handler (Qiagen, Valencia, CA) and a Sigma 4K15C centrifuge (Sigma, Osterode am Harz, Germany) according to the Qiagen-prescribed protocol. […] GeneChip Operating Software (v1.4.036) was used to quantify perfect match and mismatch features on the scanned microarray images. After quantification, quality control was assured using the Affymetrix Power Tools Quality Reporter (v1.0.04) quality control metrics.
Data normalization and analysis were performed using Resolver 7.0 software (Rosetta Inpharmatics, Seattle, WA). Ratios were built for the average of each treatment versus the group average and a p-value was calculated for every-fold change using the Resolver Affymetrix error model. […]

IGF1R and IR = assay: IGF1R versus IR in vitro enzyme activity and cellular phosphorylation; details: in vitro enzyme activity and cellular phosphorylation (data not shown)
[4] = test system: NIH-3T3 vector control cells; assay: Three day proliferation assay (MTS), NIH-3T3 vector control cells; format: cell-based; details: 72 hours
Method: (§2) Cells grown in soft agar were plated at 5,000 cells/well in 12-well tissue culture plates in a top layer of 0.3% noble agar on a 0.7% bottom layer. Media containing the final desired concentration of small molecule inhibitor was used as the agar overlay. For proliferation assays, 5,000 cells per well were plated in 96-well tissue culture treated plates and allowed to attach overnight. The following day small molecule inhibitors or DMSO control were added in duplicate at the indicated concentrations and cells were placed in tissue culture incubators for 72 hours. Cell viability was determined by an MTS assay (CellTiter Aqueous One, Promega, Madison, WI).
(§3) All cells were grown in normal growth media containing 10% FBS. B, Cells were treated for 1 hour with A-928605 in a dose response analysis as shown. The CD8-IGF1R fusion protein runs as a doublet. C and D, Three day proliferation assay in the NIH-3T3 vector control cells (C) or CD8-IGF1R cells (D) with increasing amounts of six clinical small molecule inhibitors and A-928605. Compounds were run in duplicate at each indicated concentration. Results are representative of 5 separate assays. Intended targets of each small molecule inhibitor are as follows: lapatinib, ERBB2 and EGFR; gefitinib, EGFR; dasatinib, ABL and SRC; Sorafinib, multi-targeted; imatinib, ABL and KIT; erlotinib, EGFR.

CD8 IGF1R flank tumors = assay: CD8-IGF1R xenograft flank model; format: in vivo, mice; details: 50 mg/kg i.p. b.i.d. for 10 days, end of dosing (day 26)
From the text: Figure 4 A-928605 abrogates modifications of IGF pathway signaling proteins in vitro and is efficacious in the CD8-IGF1R xenograft flank model in vivo. […] Cyclin D1 is a transcriptional target of the IGF signaling pathway and is therefore not affected by this one hour treatment.

[5] = test system: SK-N-FI renal subcapsule tumors; assay: SK-N-FI neuroblastoma renal subcapsule xenograft model; format: in vivo, mice; details: 37.5 mg/kg i.p. b.i.d. for 14 days, end of dosing (day 28)
Method: For SK-N-FI renal subcapsule tumors, mice were anesthetized with intramuscular injections of ketamine (40 mg/kg) and rompum (5 mg/kg) before surgery. […] The peritoneal cavity was closed with 4-0 suture and skin incision was closed with clip. Fourteen days after tumor cell injection, tumor growth was assessed in cohort mice by necropsy (see Figure 1B) and study mice were reassigned at that time to treatment groups (N = 10) based on injection order. At the end of the dosing period, tumor weight was determined by comparing the weight of the tumor bearing kidney to that of the contralateral kidney.
Figure 5 Efficacy of A-928605 in the SK-N-FI neuroblastoma xenograft as a renal subcapsule model. A, A-928605 inhibits proliferation of SK-N-FI cells in vitro. […] B, Representative photograph taken of the tumor bearing and contralateral kidneys prior to the initiation of dosing on day 14 post tumor cell injection, indicating a tumor weight of 0.07 g. C, Representative photograph taken of the tumor bearing and contralateral kidneys at the end of the dosing schedule (day 28).

CD8-IGF1R = target: T3, CD8-IGF1R (Homo sapiens, UniProt P01732+P08069); assay: Western blot of IGF1R pathway phosphorylation and Cyclin D1 in NIH-3T3 CD8-IGF1R cells; format: cell-based, mouse; design: phosphorylation of the IGF1R cytotail, AKT and ERK1/2 / Cyclin D1 expression: dose or concentration left out as unconfirmed
T3 construct: cytoplasmic domain of human IGF1R (amino acids 959-1368); expressed in transfected cells
T3 sequence (P01732+P08069 fused): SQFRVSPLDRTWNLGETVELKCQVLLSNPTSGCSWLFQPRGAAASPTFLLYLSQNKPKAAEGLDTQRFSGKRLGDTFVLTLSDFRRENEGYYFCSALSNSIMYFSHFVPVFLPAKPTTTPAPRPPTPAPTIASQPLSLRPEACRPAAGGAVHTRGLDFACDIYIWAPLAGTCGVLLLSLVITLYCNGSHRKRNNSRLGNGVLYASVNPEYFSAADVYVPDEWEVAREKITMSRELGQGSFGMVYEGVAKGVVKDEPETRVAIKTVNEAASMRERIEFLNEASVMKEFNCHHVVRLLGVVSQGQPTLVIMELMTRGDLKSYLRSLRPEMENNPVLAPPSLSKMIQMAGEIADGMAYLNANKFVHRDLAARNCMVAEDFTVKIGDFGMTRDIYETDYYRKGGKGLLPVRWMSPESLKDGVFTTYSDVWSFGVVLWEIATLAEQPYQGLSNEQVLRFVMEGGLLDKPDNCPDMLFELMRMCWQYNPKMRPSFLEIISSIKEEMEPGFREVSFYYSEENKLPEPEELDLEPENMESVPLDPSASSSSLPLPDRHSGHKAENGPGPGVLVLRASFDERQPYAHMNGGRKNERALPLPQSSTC
Method: NIH-3T3, SK-N-FI, MiaPaCa-2 and HCC827 cell lines were obtained from the American Type Culture Collection (ATCC, Manassas, VA). Cell lines were cultured and expanded in media according to ATCC guidelines. CD8-IGF1R was generated by an in-frame fusion of the extracellular and transmembrane domains of the human CD8α coding sequence (amino acids 1-207) followed by a BamHI restriction site to the cytoplasmic domain of human IGF1R (amino acids 959-1368). This product was cloned into the pIRESpuro3 vector (Clontech, Mountain View, CA) via AflII/NotI adaptors. NIH-3T3 CD8-IGF1R and vector control lines were generated by transfection of these constructs with FuGENE 6 (Roche Diagnostics, Basel, Switzerland) followed by selection with 2 μg/ml puromycin. Cells were dilution cloned and surviving colonies were screened for expression of the transgene. Cell clones positive for CD8-IGF1R expression and vector alone transfectants were pooled and remained under puromycin selection for the duration of the study.
Antibodies used included rabbit anti-ERK1/2 pTpY185/187 (Biosource, Camarillo, CA), rabbit anti-IGF-1Rβ and rabbit anti-Cyclin D1 (Santa Cruz Biotechnology, Inc., Santa Cruz, CA), rabbit anti-phospho-IGF-1Rβ (Tyr1135/1136)/IR (Tyr1150/1151), rabbit antiphospho-AKT (S473), rabbit anti-AKT, rabbit anti-ERK1/2, (Cell Signaling Technology, Inc., Beverly, MA) and mouse anti-ACTIN (Sigma, St. Louis, MO). All cell lysate samples were lysed directly in 2× LDS NuPAGE sample buffer with reducing reagent (Invitrogen, Carlsbad, CA) and were analyzed for levels of phosphorylated and total signaling proteins by Western blotting using the NuPAGE electrophoresis and transfer systems (Invitrogen, Carlsbad, CA) and near infrared detection.
All cells were grown in normal growth media containing 10% FBS. B, Cells were treated for 1 hour with A-928605 in a dose response analysis as shown. The CD8-IGF1R fusion protein runs as a doublet. […]

NIH-3T3 CD8-IGF1R cells [6] = assay: Three day proliferation assay (MTS), NIH-3T3 CD8-IGF1R cells; format: cell-based
Method: as §2, §3

MiaPaCa-2 flank tumors = assay: MiaPaCa-2 pancreatic xenograft flank model; format: in vivo, mice; details: A-928605 37.5 mg/kg i.p. b.i.d. 20 days; cetuximab 30 mg/kg i.p. 3×/week, 6 doses
Method: All animal studies were conducted in accordance with the guidelines established by the internal Institutional Animal Care and Use Committees. For CD8 IGF1R flank tumors, 5.0 × 10^5 cells/mouse were mixed with an equal volume of Matrigel (BD Biosciences) and injected subcutaneously into the flank of 6- to 8-week-old female nu/nu mice (22 g; Charles River Laboratories). The tumors were allowed to grow approximately 225 mm^3, and mice were reassigned into treatment groups (N = 10) based on tumor volume. At the initiation of treatment, the mean tumor volume ± SEM of the groups was approximately 231 ± 10 mm^3. For MiaPaCa-2 flank tumors, 1.0 × 10^6 cells/mouse were mixed with an equal volume of Matrigel and injected subcutaneously into the flank of 6- to 8-week-old female SCID mice (20 g; Charles River Laboratories). The tumors were allowed to grow approximately 225 mm^3, and mice were reassigned into treatment groups (N = 10) based on tumor volume. […] In all flank models, tumor growth was periodically analyzed by measurement with digital calipers and tumor volume was estimated from the formula (L × W ^2)/2. For all flank models, the effect of treatment on tumor growth rate was assessed by determining %T/C [(mean tumor volume of treated group on day X ÷ mean tumor volume of control group on day X) × 100]. […]

NIH-3T3 CD8-IGF1R cells [7] = assay: Morphology of CD8-IGF1R cells (phase contrast imaging); format: cell-based; details: increasing concentrations, imaging two days after addition
Method: Supplementary file 1471-2407-9-314-S1.jpeg: Additional File 1 Supplementary Figure S1. Transformed morphology of the CD8-IGF1R cells. A, Phase contrast images of the NIH-3T3 vector control cells versus the NIH-3T3 CD8-IGF1R cells. B, Morphological dose response of the CD8-IGF1R line to A-928605 treatment. Cells were plated and allowed to adhere and proliferate overnight. The next day compound was added and imaging was performed two days later. The cellular morphology appears to revert back towards a naive 3T3 fibroblast at concentrations near or […] the IC50 of A-928605. All images were captured with a 20× objective. Click here for file

NIH-3T3 CD8-IGF1R cells [8] = assay: Soft agar anchorage-independent growth assay; format: cell-based; details: 1 μM, three weeks
Method: as §2
Supplementary file 1471-2407-9-314-S2.jpeg: Additional File 2 Supplementary Figure S2. […] Cells were plated in soft agar with an overlay containing DMSO control (left) or a final concentration of 1 μM A-928605 (right). Cells were allowed to grow in a tissue culture incubator for three weeks before imaging. The 3T3 vector control line was not capable of anchorage-independent growth in soft agar (data not shown). Click here for file

SK-N-FI cells = assay: SK-N-FI proliferation in vitro; format: cell-based, human; details: SK-N-FI cell line
Method: as §2

SMILES: C#Cc1cccc(Nc2ncnc3cc(OCCOC)c(OCCOC)cc23)c1 [erlotinib, reference compound]
- tumor response in words (HCC-827 flank tumors; mouse, in vivo): partial responses

- IC50 [1]: > 10 µM
- IC50 [2]: > 10 µM
- Ki (IGF1R): < 10 nM
- Ki (IR): < 10 nM
- IC50s against IGF1R versus IR (IGF1R and IR): roughly equipotent
- Cyclin D1 expression (CD8-IGF1R; 24-hours of treatment): significant decrease
- IC50 (CD8-IGF1R; CD8-IGF1R cell line, 1 hour treatment, inhibition near known cellular IC50, read-out: cellular phosphorylation IC50 (dose-dependent inhibition of IGF1R phosphorylation)): ~100 nM
- phosphorylation of the IGF1R cytotail, AKT and ERK1/2 (CD8-IGF1R; one hour of treatment, CD8-IGF1R cells): inhibition of phosphorylation
SMILES: Nc1ncnc2c1c(-c1ccc3[nH]c(Cc4ccccc4Cl)nc3c1)nn2[C@H]1CC[C@H](N2CCOCC2)CC1 [A-928605, 3-(2-(2-chlorobenzyl)-1 H-benzo [d]imidazol-5-yl)-1-((1 r, 4 r)-4-morpholinocyclohexyl)-1 H-pyrazolo [3,4-d]pyrimidin-4-amine]
- tumor response in words (HCC-827 flank tumors; size-matched HCC827 xenografts, 16 days dosing): not consistently statistically different from its vehicle control; also recorded: partial responses
- decrease in Ccn d1 transcripts (NIH-3T3 CD8-IGF1R cells [3]): 4.8 fold
- up-regulation of Cdkn1a (p21) (NIH-3T3 CD8-IGF1R cells [3]): 1.5 fold
- effect on cellular proliferation [4]: little effect
- %T/C (tumor volume, treated vs. vehicle) (CD8 IGF1R flank tumors): 21%
- %T/C (tumor weight, treated vs. vehicle) [5]: 58%
- IC50 (NIH-3T3 CD8-IGF1R cells [6]; Mus musculus, NIH3T3, CD8-IGF1R cells, 72 hours, read-out: IC50, inhibition of cellular proliferation): < 300 nM
- %T/C, monotherapy compared to appropriate controls (MiaPaCa-2 flank tumors): approximately 80%
- transformed phenotype (morphology) (NIH-3T3 CD8-IGF1R cells [7]): reversal of their transformed phenotype
- inhibition of anchorage-independent growth in soft agar (NIH-3T3 CD8-IGF1R cells [8]): completely inhibiting; also recorded: inhibits growth
- inhibition of proliferation in vitro (SK-N-FI cells): effectively inhibit proliferation

SMILES: Cc1nc(Nc2ncc(C(=O)Nc3c(C)cccc3Cl)s2)cc(N2CCN(CCO)CC2)n1 [Dasatinib, reference compound]
- effect on cellular proliferation [4]: potent inhibitor
- effect on cellular proliferation (NIH-3T3 CD8-IGF1R cells [6]; CD8-IGF1R line, concentrations up to 10 μM): no effect

Reference: PMC2749869, “Reversal of oncogene transformation and suppression of tumor growth by the novel IGF1R kinase inhibitor A-928605” (BMC Cancer, 2009)
